These results are taken from patent US7172862B2, “FBL2-specific agents as modulators of Flaviviridae RNA replication” (Board of Regents, The University of Texas System, priority 2005, dated 2007).

For assay [1], the system named is wild-type FBL2. Kind of assay: Subcellular fractionation (cytosol/membrane) and immunoblot of transfected wild-type FBL2 in CHO-7 cells. The assay is classed as cell-based. The following applies: CHO-7 cells transfected with Myc-tagged wild-type FBL2; immunoblot anti-Myc. Here is the method: (§1) Since prenylation of proteins normally facilitates their membrane association, we compared the localization of wild-type FBL2 and the mutant FBL2 that cannot be prenylated. CHO-7 cells transfected with a plasmid encoding NH2-terminal Myc-tagged wild-type FBL2 or mutant FBL2(C420S) were treated either with GGTI-286, a drug that inhibits both geranylgeranylation and farnesylation, or with FPTI-III, a drug that inhibits only farnesylation (Ye et al., 2003). Cells were fractionated into cytosol and membrane fractions, and immunoblotted with monoclonal anti-Myc IgG-9E10.

In assay [2] the test system is mutant FBL2(C420S). As to the kind of experiment: Subcellular fractionation (cytosol/membrane) and immunoblot of transfected mutant FBL2(C420S) in CHO-7 cells. The following applies: CHO-7 cells transfected with Myc-tagged FBL2(C420S). It is filed as cell-based. Here is the method:
as §1

Assay [3] has as its system HCV RNA. Kind of assay: HCV RNA level / replication in Huh7-HP replicon cells. The following applies: drug treatment. The assay is classed as cell-based. The source says:
Further evidence that FBL2 is required for HCV RNA replication was obtained in experiments in which the level of FBL2 mRNA was reduced by transfection with duplex siRNA. An siRNA sequence targeting human FBL2 and having a sequence corresponding to positions 40-60 relative to the first nucleotide start codon, was transfected into Huh7-HP cells with TransMessenger transfection reagent (Qiagen) according to the manufacturer's protocol. […] We confirmed that these cells resemble the other HCV replicon cell lines in that HCV replication is inhibited by treatment with lovastatin (Ye et al., 2003) or an inhibitor of GGTase-I, GGTI-286. The NS5A derived from these cells interacts with FBL2. siRNA targeting FBL2 was and produced a 70% knockdown of FBL2 mRNA, an effect that was not observed when the cells were treated with a control siRNA containing 6 mismatched nucleotides.

The subject of assay [4] is HCV RNA replication. The following applies: cited from earlier work; for overcoming of the inhibition of HCV RNA replication by lovastatin: added with lovastatin.
The subject of assay [5] is HCV RNA replicon. As to the kind of experiment: HCV RNA level in Huh7-K2040 replicon cells after transfection of FBL2 plasmids. The assay is classed as cell-based. The following applies: at least 80% of cells transfected. The source says:
FBL2(67-423), which lacks an F-box, is likely to be nonfunctional, yet it still binds to NS5A. We therefore considered the possibility that overexpression of FBL2(67-423) may inhibit HCV RNA replication in a dominant-negative fashion by sequestering NS5A and preventing it from interacting with endogenous functional FBL2. To test this hypothesis, we transfected plasmids encoding wild-type and various mutant versions of FBL2 into Huh7-K2040 cells that harbor the HCV RNA replicon. As described above, we included only those experiments in which at least 80% of the cells were transfected. […] Importantly, transfected FBL2(67-423; C420S), which cannot bind to NS5A, had no effect on HCV RNA levels.

Assay [6] concerns NS5A. The following applies: Huh7 cells; anti-Flag pull-down of NS5A, anti-Myc blot. From the text:
To determine the components of FBL2 that are required for interaction with the NH2-terminal half of NS5A, we made plasmids encoding the following proteins: NH2-terminal Myc-tagged wild-type FBL2, FBL2 with its CAAX box mutated so that it cannot be geranylgeranylated (C420S), FBL2 with its NH2-terminal F-box deleted (FBL2(67-423)), and FBL2 with both its F-box deleted and its CAAX box mutated (FBL2 67-423, C420S). These plasmids were transfected into Huh7 cells together with a plasmid encoding Flag and HA-tagged NS5A. Cell extracts were immunoprecipitated with anti-Flag beads to pull down NS5A and blotted with anti-HA and anti-Myc for detection of transfected NS5A and FBL2, respectively.

Assay [7] deals with West Nile virus replicon. As to the kind of experiment: West Nile virus replicon RNA level in Huh7-WNV-2 cells after transfection of FBL2 plasmids. It is filed as cell-based. The following applies: conditions reducing HCV RNA by 75%.

With `COC(=O)[C@H](CC(C)C)NC(=O)c1ccc(NC[C@@H](N)CS)cc1-c1ccccc1` [GGTI-286], in assay [1], the “localization of wild-type FBL2 in cytosol and membrane fractions” value is “distributed equally in cytosol and membrane fractions”. Besides, the “subcellular localization of the mutant FBL2 that lacks a CAAX motif” value in assay [2] is given as “did not change”. The HCV replication entry in assay [3] is listed as “inhibited”.
Turning to `CC(C)=CCCC(C)=CCCC(C)=CCO` [farnesol], the “overcoming of the inhibition of HCV RNA replication by lovastatin” value in assay [4] was “not”.
For `CC(C)=CCC/C(C)=C/CC/C(C)=C/CC/C(C)=C/CO` [geranylgeraniol], in assay [4], the “overcoming of the inhibition of HCV RNA replication by lovastatin” value is on record as “overcome”.
In the case of `CC[C@H](C)C(=O)O[C@H]1C[C@@H](C)C=C2C=C[C@H](C)[C@H](CC[C@@H]3C[C@@H](O)CC(=O)O3)[C@H]21` [lovastatin], in assay [3], the HCV replication entry was “inhibited”. Further, the “HCV RNA replication” value in assay [4] (Huh7 cells) is reported as “disrupted”.
For the molecule FPTI-III, the “localization of wild-type FBL2 in cytosol and membrane fractions” value in assay [1] is “not”.

B1: FBL2(100-423): alternative FBL2 N-terminal truncation (protein, UniProt Q9UKC9 100-423, looked up, fragment)
chain: AQNCRNIEHLNLNGCTKITDSTCYSLSRFCSKLKHLDLTSCVSITNSSLKGISEGCRNLEYLNLSWCDQITKDGIEALVRGCRGLKALLLRGCTQLEDEALKHIQNYCHELVSLNLQSCSRITDEGVVQICRGCHRLQALCLSGCSNLTDASLTALGLNCPRLQILEAARCSHLTDAGFTLLARNCHELEKMDLEECILITDSTLIQLSIHCPKLQALSLSHCELITDDGILHLSNSTCGHERLRVLELDNCLLITDVALEHLENCRGLERLELYDCQQVTRAGIKRMRAQLPHVKVHAYFAPVTPPTAVAGSGQRLCRCCVIL
In the case of B1, the “reduction of the level of HCV RNA” value in assay [5] is “dominant-negative affects”.

B2: FBL2(50-423): alternative FBL2 N-terminal truncation (protein, UniProt Q9UKC9 50-423, looked up, fragment)
chain: SNWQRIDLFNFQTDVEGRVVENISKRCGGFLRKLSLRGCIGVGDSSLKTFAQNCRNIEHLNLNGCTKITDSTCYSLSRFCSKLKHLDLTSCVSITNSSLKGISEGCRNLEYLNLSWCDQITKDGIEALVRGCRGLKALLLRGCTQLEDEALKHIQNYCHELVSLNLQSCSRITDEGVVQICRGCHRLQALCLSGCSNLTDASLTALGLNCPRLQILEAARCSHLTDAGFTLLARNCHELEKMDLEECILITDSTLIQLSIHCPKLQALSLSHCELITDDGILHLSNSTCGHERLRVLELDNCLLITDVALEHLENCRGLERLELYDCQQVTRAGIKRMRAQLPHVKVHAYFAPVTPPTAVAGSGQRLCRCCVIL
As for B2, the “reduction of the level of HCV RNA” value in assay [5] is “dominant-negative affects”.

B3: wild-type FBL2: NH2-terminal Myc-tagged wild-type FBL2 expressed from a transfected plasmid (protein, UniProt Q9UKC9 1-423, looked up)
F-box/LRR-repeat protein 2: MVFSNNDEGLINKKLPKELLLRIFSFLDIVTLCRCAQISKAWNILALDGSNWQRIDLFNFQTDVEGRVVENISKRCGGFLRKLSLRGCIGVGDSSLKTFAQNCRNIEHLNLNGCTKITDSTCYSLSRFCSKLKHLDLTSCVSITNSSLKGISEGCRNLEYLNLSWCDQITKDGIEALVRGCRGLKALLLRGCTQLEDEALKHIQNYCHELVSLNLQSCSRITDEGVVQICRGCHRLQALCLSGCSNLTDASLTALGLNCPRLQILEAARCSHLTDAGFTLLARNCHELEKMDLEECILITDSTLIQLSIHCPKLQALSLSHCELITDDGILHLSNSTCGHERLRVLELDNCLLITDVALEHLENCRGLERLELYDCQQVTRAGIKRMRAQLPHVKVHAYFAPVTPPTAVAGSGQRLCRCCVIL
modifications: N-terminal Myc tag
notes: NH2-terminal Myc-tagged wild-type FBL2 expressed from a transfected plasmid
On to B3, for which, in assay [6], the “co-precipitation with NS5A” value was “co-precipitated”. Also, the “reduction of the level of HCV RNA” value in assay [5] was “did not change”.

B4: FBL2(67-423): FBL2 with its NH2-terminal F-box deleted; dominant-negative for HCV RNA replication (protein, UniProt Q9UKC9 67-423, looked up, fragment)
chain: RVVENISKRCGGFLRKLSLRGCIGVGDSSLKTFAQNCRNIEHLNLNGCTKITDSTCYSLSRFCSKLKHLDLTSCVSITNSSLKGISEGCRNLEYLNLSWCDQITKDGIEALVRGCRGLKALLLRGCTQLEDEALKHIQNYCHELVSLNLQSCSRITDEGVVQICRGCHRLQALCLSGCSNLTDASLTALGLNCPRLQILEAARCSHLTDAGFTLLARNCHELEKMDLEECILITDSTLIQLSIHCPKLQALSLSHCELITDDGILHLSNSTCGHERLRVLELDNCLLITDVALEHLENCRGLERLELYDCQQVTRAGIKRMRAQLPHVKVHAYFAPVTPPTAVAGSGQRLCRCCVIL
In the case of B4, the “co-precipitation with NS5A” value in assay [6] is “co-precipitated”. Further, the “change in the level of West Nile virus replicon RNA” value in assay [7] is recorded as “no significant change”.

B5: FBL2(67-423; C420S): FBL2 with both its F-box deleted and its CAAX box mutated (protein, UniProt Q9UKC9 67-423, looked up, fragment C420S)
chain: RVVENISKRCGGFLRKLSLRGCIGVGDSSLKTFAQNCRNIEHLNLNGCTKITDSTCYSLSRFCSKLKHLDLTSCVSITNSSLKGISEGCRNLEYLNLSWCDQITKDGIEALVRGCRGLKALLLRGCTQLEDEALKHIQNYCHELVSLNLQSCSRITDEGVVQICRGCHRLQALCLSGCSNLTDASLTALGLNCPRLQILEAARCSHLTDAGFTLLARNCHELEKMDLEECILITDSTLIQLSIHCPKLQALSLSHCELITDDGILHLSNSTCGHERLRVLELDNCLLITDVALEHLENCRGLERLELYDCQQVTRAGIKRMRAQLPHVKVHAYFAPVTPPTAVAGSGQRLCRCSVIL
Turning to B5, the “co-precipitation with NS5A” value in assay [6] is on record as “abrogated binding”. The “reduction of the level of HCV RNA” value in assay [5] is listed as “no effect”.
